In patent US20120270786A1, “INTESTINE AND MUSCLE RECOVERY” (I.N.R.A., priority 2009, published 2012):
Marks after values point to notes of the source that are not given here.

Assays:
Assay type in all cases: in vivo, rat
[1] = system: starvation-induced skeletal muscle atrophy; assay: Starvation-induced skeletal muscle atrophy (experiment 3); conditions: for EDL mass / gastrocnemius mass / tibialis anterior mass: GLP-2, mean ± SEM, n=5
Protocol: (§1) Young male Wistar rats (50-60 g) were obtained from Charles River (L'Arbresle, France) and maintained in a temperature controlled room (22±1° C.) with a 12 h light/12 h dark cycle. They were given free access to a standard rodent diet (A03; UAR, Epernay sur Orge, France) and to water during a 5 days acclimatization period. Three experiments were conducted. (1) In the first experiment, rats were fed ad libitum or fasted for 1 or 2 days. At the end of the fasting period, rats were anesthetized with intraperitoneal injection of urethane (1.7 g/kg body weight, Sigma Aldrich, Lyon, France) and sacrificed. (2) In the second experiment, animals were randomly divided into control and GLP-2 treated groups (n=26-30 per group). Injections of saline (400 μL) or GLP-2 (20 μg/400 μL of saline) every 12 h started at day 0 and continued until the end of the experiment. At day 4, half of each group was deprived of food for 2 days. At day 6, animals were sacrificed as described. (3) In the last experiment, rats were allocated as described in experiment 2. Control and GLP-2 treated groups (n=20 per group) were divided into 2 groups of fed (n=5) and starved rats (n=15). Saline and GLP-2 injections continued until the sacrifice of the rats. At day 6, 5 rats from the fed and the 48 h-fasted groups treated or not with GLP-2 were sacrificed as described. The remaining fasted animals from the control and GLP-2 treated groups were refed ad libitum from day 6 for 6 or 24 h. After refeeding, rats were sacrificed as described.
(§2) The entire small intestine was rapidly excised, rinsed three times with ice-cold PBS, blotted and weighed. Ten cm caudal to the pyloric sphincter and ten cm cranial to the ileo-caecal junction were taken and discarded. Jejunum and ileum were excised, weighed, and divided in small pieces of 5 cm. The first piece was immediately processed for cathepsin activities. The remaining pieces were frozen in liquid nitrogen, and stored at −80° C. until further analyses. In experiment 3, skeletal muscles (EDL, gastrocnemius and tibialis anterior) were also carefully dissected and weight.
(§3) Data are expressed as means±SEM. One-way or two-way ANOVA were used to address for fasting effect in experiment 1 and for fasting and GLP-2 effects experiment 2 and 3. A posteriori PLSD Fisher's test was performed in order to assess for differences among groups. P values <0.05 were considered statistical significance and P values <0.10 were considered statistical tendency.

[2] = system: Cathepsin (B, B+S, B+L+S and D); assay: Cathepsin activities in the jejunum of fed and starved rats
Protocol: (§4) Young male Wistar rats (50-60 g) were obtained from Charles River (L'Arbresle, France) and maintained in a temperature controlled room (22±1° C.) with a 12 h light/12 h dark cycle. They were given free access to a standard rodent diet (A03; UAR, Epernay sur Orge, France) and to water during a 5 days acclimatization period. Three experiments were conducted. (1) In the first experiment, rats were fed ad libitum or fasted for 1 or 2 days. At the end of the fasting period, rats were anesthetized with intraperitoneal injection of urethane (1.7 g/kg body weight, Sigma Aldrich, Lyon, France) and sacrificed. […]
(§5) The five cm pieces of jejunum and/or ileum were immediately homogenized using a polytron homogenizer in a 10 mmol/L phosphate buffer (pH 7.4) containing 50 mmol/L KCl, 1 mmol/L EDTA and 0.25 mol/L sucrose as described previously.^30 Homogenates were then centrifuged at 1,000 g (10 minutes, 4° C.). […] Cathepsin B and cathepsin B+L+S activities were determined using the fluorogenic substrates Z-arginine-arginine-AMC (ZAA-AMC, 50 μmol/L, Sigma), Z-phenylalanine-arginine-AMC (ZPA-AMC, 30 μmol/L, Sigma), respectively.^30 Neutral pH reducing the cathepsin L activity, the bulk of the cathepsin B+L+S activity measured with ZPA-AMC at pH 7.0 reflects the cathepsin B+S activity. […] Fluorescence was measured continuously at 380 nm excitation and 440 nm emission wavelengths. […]

Cathepsin B = Cathepsin B activity in the ileum; conditions: compared with untreated rats, P<0.002
Protocol: as §4, §5

[3] = system: Tibialis anterior, gastrocnemius and EDL muscle masses; assay: Skeletal muscle mass recovery after 48 h starvation and 24 h refeeding
Protocol: as §1, §2

small intestinal mass = assay: Small intestinal mass recovery after 48 h starvation and 6 or 24 h refeeding
Protocol: as §1, §2

[4] = system: starvation-induced body weight loss and intestine atrophy; assay: Starvation-induced body weight loss and intestine atrophy in saline- or GLP-2-injected rats (experiment 2); conditions: for Body weight / Ileum mass / Jejunum mass / Small intestine mass: GLP-2 20 μg every 12 h, mean ± SEM
Protocol: as §1, §2, §3

Cathepsin B+L+S = Cathepsin B+L+S activity in the ileum; conditions: compared with untreated rats, P<0.0005
Protocol: as §4, §5

proteasome = assay: Peptidase activities of the proteasome in the small intestine of fed and starved rats
Protocol: as §4
Proteins from pieces of jejunum and/or ileum were homogenized using a polytron homogenizer, in ice-cold buffer (pH 7.5) containing 50 mmol/L Tris/HCl, 5 mmol/L MgCl2, 250 mmol/L sucrose, 10 mmol/L ATP, 1 mmol/L DTT, 10 μg/mL aprotinin, 10 μg/mL leupeptin, 10 μg/mL antipain, 10 μg/mL pepstatin A, and 0.2 mmol/L phenylmethylsulphonylfluoride (PMSF). […] The protein content of the proteasome preparation was determined using the Biorad protein assay following the manufacturer instructions. […] The accumulation of AMC at 37° C. during 45 minutes was measured continuously as described for cathepsin activities measurements. The difference between arbitrary fluorescence units recorded with or without 40 μmol/L […]of the proteasome inhibitor MG132 (Affiniti) in the reaction medium was calculated. […]

[5] = system: villus height and crypt depth in the jejunum and ileum; assay: Histologic and morphometric measurements of villus height and crypt depth in jejunum and ileum; conditions: GLP-2 treatment
Protocol: as §1
Tissue samples from jejunum and ileum were fixed in 10% formaldehyde buffered with Na2CO3 (10 g/L) and processed for villus height and crypt depth measurements. Treatment designation of slides was blinded at the time of measurement.

[6] = GLP-2 effect, two-way ANOVA, P<0.0001

HGDGSFSDEMNTILDNLATRDFINWLIQTKITD (Rat GLP-2 sequence with an Ala-->Gly exchange in position 2) [Rat recombinant GLP-2, [Ala] in position 2 substituted by [Gly] to make the peptide resistant to DPP IV degradation]
EDL mass ([1]; fed rats): 45.7 ± 0.9^a mg | gastrocnemius mass ([1]; fed rats): 0.513 ± 0.013^a g | tibialis anterior mass ([1]; fed rats): 195.7 ± 5.0^a mg | skeletal muscle loss (tibialis anterior, gastrocnemius, EDL) ([1]; following 2 days of starvation): did not prevent | EDL mass ([1]; starved rats (48 h)): 37.2 ± 0.9^b mg | gastrocnemius mass ([1]; starved rats (48 h)): 0.415 ± 0.006^b g | tibialis anterior mass ([1]; starved rats (48 h)): 156.6 ± 2.0^b mg | cathepsin activities [2]: blocked the increase | decrease of cathepsin B activity (Cathepsin B): −43% | EDL muscle recovery ([3]; after 24 h of refeeding): totally recovered | Tibialis anterior muscle recovery ([3]; after 24 h of refeeding): totally recovered | gastrocnemius atrophy ([3]; after 24 h of refeeding, compared to GLP-2 treated fed rats, P<0.05): 9% | skeletal muscle recovery ([3]; refeeding after 48 h starvation): enhanced | small intestinal atrophy (small intestinal mass; after 6 h of refeeding, P<0.001): 15% | small intestinal atrophy (small intestinal mass; after 24 h of refeeding): totally absent | small intestine recovery (small intestinal mass; after 24 h of refeeding, GLP-2 treated rats): totally recovered | recovery of the small intestinal mass (small intestinal mass; refed rats after 48 h starvation, compared to saline injected animals): accelerated recovery | atrophy of the jejunum ([4]; GLP-2-treated starved rats vs. saline injected-fed rats, P<0.005): −12% | increase of jejunal mass [4, 6]: 21% | increase of total small intestinal mass [4, 6]: 22% | increase of ileal mass ([4]; GLP-2 effect, two-way ANOVA, P<0.005): 17.5% | starvation-induced loss of body weight ([4]; GLP-2 treated group, starved vs fed): −22% | whole small intestine and ileum mass ([4]; GLP-2 treated-starved rats compared with saline injected-fed rats): similar | Body weight ([4]; fed rats, day 6): 112.5 ± 1.7^a g | Ileum mass ([4]; fed rats): 1.24 ± 0.07^b g | Jejunum mass ([4]; fed rats): 3.45 ± 0.08^b g | Small intestine mass ([4]; fed rats): 5.57 ± 0.17^b g | Body weight ([4]; rats starved 2 days): 87.2 ± 1.0^b g | Ileum mass ([4]; rats starved 2 days): 1.02 ± 0.05^a g | Jejunum mass ([4]; rats starved 2 days): 2.62 ± 0.09^d g | Small intestine mass ([4]; rats starved 2 days): 4.56 ± 0.11^a g | reduction of the atrophy of the small intestine induced by starvation ([4]; starved rats receiving GLP-2): 16% | decrease of cathepsin B+L+S activity (Cathepsin B+L+S): −50% | Peptidase activities of the proteasome (proteasome; jejunum or ileum, daily administration of GLP-2): not modified | increase of the chymotrypsin- and the trypsin-like activities (proteasome; jejunum, following fasting): did not block the increase | villus height in the ileum [5]: no effect | crypt depth in the ileum ([5]; following fasting): did not inhibit the reduction | crypt depth in the jejunum ([5]; following starvation): blocked the decrease | reduction of the villus height in the jejunum ([5]; following starvation): −13%
